{"source": "patent US20240368115A1", "about": "“REGULATOR CONTAINING TRICYCLIC DERIVATIVE, PREPARATION METHOD THEREFOR AND APPLICATION THEREOF” (SHUJING BIOPHARMA CO., LTD, priority 2021, published 2024)", "type_in_all_cases": "cell-based", "key": {"D2L receptor": {"target": "T1, D2L receptor (Homo sapiens, UniProt P14416)", "T1 construct": "expressed in transfected cells", "T1 sequence (P14416 whole entry)": "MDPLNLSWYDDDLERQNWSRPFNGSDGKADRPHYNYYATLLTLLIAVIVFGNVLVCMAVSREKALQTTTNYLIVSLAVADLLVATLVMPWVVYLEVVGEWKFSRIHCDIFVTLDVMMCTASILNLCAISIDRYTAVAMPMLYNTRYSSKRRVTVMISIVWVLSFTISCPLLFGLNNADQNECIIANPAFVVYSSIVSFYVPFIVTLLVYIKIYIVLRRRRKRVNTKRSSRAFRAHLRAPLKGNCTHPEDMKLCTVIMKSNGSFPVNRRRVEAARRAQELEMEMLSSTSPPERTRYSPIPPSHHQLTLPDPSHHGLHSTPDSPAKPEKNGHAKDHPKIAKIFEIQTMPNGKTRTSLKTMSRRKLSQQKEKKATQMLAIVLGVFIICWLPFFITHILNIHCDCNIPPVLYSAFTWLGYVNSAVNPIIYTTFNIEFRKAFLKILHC", "assay": "D2L receptor cAMP agonist test", "conditions": "HEK293 cell strain stably expressing D2L receptor"}, "D2S receptor": {"target": "T2, D2S receptor (Homo sapiens, UniProt P14416)", "T2 construct": "expressed in transfected cells", "T2 sequence (P14416 1-414 isoform P14416-2)": "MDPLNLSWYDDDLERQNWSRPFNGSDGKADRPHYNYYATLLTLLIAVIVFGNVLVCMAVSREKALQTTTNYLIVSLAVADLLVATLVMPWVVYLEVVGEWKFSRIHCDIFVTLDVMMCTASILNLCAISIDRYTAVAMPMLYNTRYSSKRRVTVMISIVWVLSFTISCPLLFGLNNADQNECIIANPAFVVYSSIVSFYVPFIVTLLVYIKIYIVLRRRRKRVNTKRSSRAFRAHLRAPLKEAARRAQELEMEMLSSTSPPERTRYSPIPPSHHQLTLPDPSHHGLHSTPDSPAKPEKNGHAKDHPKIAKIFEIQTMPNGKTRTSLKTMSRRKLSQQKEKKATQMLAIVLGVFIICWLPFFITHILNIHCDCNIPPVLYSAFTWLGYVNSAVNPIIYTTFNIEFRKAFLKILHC", "assay": "D2S receptor cAMP agonist test", "conditions": "HEK293 cell strain stably expressing D2S receptor"}, "5-HT2B receptor": {"target": "5-HT2B receptor (Homo sapiens, UniProt P41595)", "sequence (P41595 whole entry)": "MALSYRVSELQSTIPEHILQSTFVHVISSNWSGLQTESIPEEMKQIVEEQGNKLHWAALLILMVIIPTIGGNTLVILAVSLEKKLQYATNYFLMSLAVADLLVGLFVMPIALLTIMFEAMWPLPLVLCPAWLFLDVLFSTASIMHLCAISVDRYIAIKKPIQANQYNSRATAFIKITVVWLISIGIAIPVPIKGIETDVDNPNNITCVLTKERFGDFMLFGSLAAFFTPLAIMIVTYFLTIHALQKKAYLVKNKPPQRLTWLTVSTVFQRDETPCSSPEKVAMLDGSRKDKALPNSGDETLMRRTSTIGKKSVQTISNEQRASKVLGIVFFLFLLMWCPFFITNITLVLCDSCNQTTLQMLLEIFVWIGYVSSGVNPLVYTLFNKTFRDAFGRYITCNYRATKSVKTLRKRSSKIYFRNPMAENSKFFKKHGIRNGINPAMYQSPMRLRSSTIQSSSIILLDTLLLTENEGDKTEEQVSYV", "assay": "Calcium flux test for 5-HT2B receptor", "conditions": "HEK293 cell strain stably expressing 5-HT2B receptor", "source_text": "• Fluo-4 calcium flux detection kit was purchased from Invitrogen; an HEK293 cell strain stably expressing 5-HT2B receptor was purchased from GenScript; serotonin was purchased from Sigma; methiothepin was purchased from Targetmol; polylysine-coated 384-well plates and 384-well compound plates were purchased from Greiner Bio-One. Molecular Device FLIPR, Agilent Bravo liquid workstation, and Countstar BioTech cell counter.\n• (1) The cultured cells were digested with trypsin, and the cell suspension was taken after the digestion was terminated. The cryopreserved cells were rapidly thawed in a water bath at 37° C., and the cells were resuspended in a plating medium. […] The pellet was resuspended in an appropriate amount of plating medium, 20 μL of cell suspension was counted using a cell counter, and the cell density was diluted to 1×10^6 cells/mL. • (2) 20 μL of cell suspension was added to a polylysine-coated 384-well plate (2×10^4 cells/well). • (3) The cell plate was incubated in a 37° C./5% CO2 incubator for 16-20 h.\n• (1) The cell plate was taken out from the incubator and centrifuged at 100×g to remove the medium. […] The cell plate and agonist positive compound plate were placed into the FLIPR instrument, the detection program was run, 10 μL of the diluted compound was transferred from the agonist compound plate to the cell plate, and the fluorescence signal was read. […]"}, "5-HT1A receptor": {"target": "T3, 5-HT1A receptor (Homo sapiens, UniProt P08908)", "T3 construct": "expressed in transfected cells", "T3 sequence (P08908 1-422)": "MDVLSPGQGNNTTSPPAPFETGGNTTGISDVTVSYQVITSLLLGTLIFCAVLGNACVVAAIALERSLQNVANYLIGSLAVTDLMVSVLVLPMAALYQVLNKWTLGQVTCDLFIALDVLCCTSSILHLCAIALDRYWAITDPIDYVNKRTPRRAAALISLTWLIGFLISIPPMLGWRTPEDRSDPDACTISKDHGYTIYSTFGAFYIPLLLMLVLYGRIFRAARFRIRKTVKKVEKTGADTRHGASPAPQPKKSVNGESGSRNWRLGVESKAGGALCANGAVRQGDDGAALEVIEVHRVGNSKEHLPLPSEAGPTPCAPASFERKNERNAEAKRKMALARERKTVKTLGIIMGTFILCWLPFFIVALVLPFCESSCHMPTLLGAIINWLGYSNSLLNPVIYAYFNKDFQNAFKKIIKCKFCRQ", "assay": "5-HT1A receptor cAMP agonist test", "conditions": "HEK293 cell strain stably expressing 5-HT1A receptor"}}, "data": [{"smiles": "O=C1Nc2cc(OCCCCN3CCN(c4cccc(Cl)c4Cl)CC3)ccc2C2CC12", "note": "(centres unmarked) [Example 1, 5-(4-(4-(2,3-Dichlorophenyl)piperazin-1-yl)butoxy)-3,7b-dihydro-1H-cyclopropa[c]quinolin-2(1aH)-one]", "values": [{"measurement": "EC50", "setting": "D2L receptor; cAMP, forskolin 0.5 μM", "value": 0.62, "unit": "nM"}, {"measurement": "D2L Max Act %", "setting": "D2L receptor; positive control dopamine 1 μM", "value": 54.4, "unit": "%"}, {"measurement": "EC50", "setting": "D2S receptor; cAMP, forskolin 5×10^−7 M", "value": 0.97, "unit": "nM"}, {"measurement": "D2S Max Act %", "setting": "D2S receptor; positive control dopamine 1×10^−7 M", "value": 114.9, "unit": "%"}, {"measurement": "IC50", "setting": "5-HT2B receptor; calcium flux, antagonism of serotonin", "value": 658, "unit": "nM"}, {"measurement": "5-HT2B Max Inh %", "setting": "5-HT2B receptor; positive control methiothepin 10^−5 M", "value": 105.8, "unit": "%"}, {"measurement": "EC50", "setting": "5-HT1A receptor; cAMP, forskolin 2.5×10^−7 M", "value": 1010, "unit": "nM"}, {"measurement": "5-HT1A Max Act %", "setting": "5-HT1A receptor; positive control serotonin 10^−6 M", "value": 50.2, "unit": "%"}]}]}
